This is an account of results in patent publication US20070225312A1, “TERGURIDE / PROTERGURIDE FOR THE TREATMENT OF CHRONIC PAIN” (ERGONEX PHARMA GMBH, priority 2006, published 2007).

Series [1] relates to patient with postherpetic neuralgia. Description: Postherpetic neuralgia case. Type of series: in vivo, human. The following applies: for pains under prior treatment: amitriptyline 3x50 mg/d, subsequently gabapentin 1500 mg daily, considerable deterioration within 10 days. An excerpt: A patient of normal weight complained about a severe burning sensation and pains in the dermal area of the chest.

For series [2], the system named is patient with diabetic neuropathy. The experiment in a line: Diabetic neuropathy case (numerical rating scale). Type of series: in vivo, human. As for the experimental part:
About 15 months ago, a diabetic neuropathy was clinically diagnosed in a patient who has been suffering from Type 2 Diabetes for 10 years. The patient was treated with 3×50 mg amitryptiline/day. At the time of the examination, the patient complained about pain conditions associated with burning sensations, shooting or stabbing pains and unpleasant formication, mainly in the feet and with increasing intensity during the night. On the numerical rating scale from 0=no pain to 10=maximum pain intensity, the patient reported mean pain values of 8-9 on average.
Under therapy with terguride (0.5 mg b.i.d.) the pain conditions and the general condition of the patient improved quickly (average pain value of 2-3 on the rating scale).

The subject of series [3] is patient with herniated disc, chronic pain. The experiment in a line: Herniated disc chronic pain case, co-therapy with oxycodone.
Series [4] has as its system patient suffering from fibromyalgia. Description: Application of proterguride in the case of fibromyalgia (single patient). Type of series: in vivo, human. The following applies: daily dose 0.5 mg. As for the experimental part: A patient suffering from fibromyalgia was treated with proterguride.
The patient complained about stomach problems, stomach pains, pains in the chest as well as about swollen breasts and continuous exhaustion and tiredness. The discomforts had persisted for approx. one year. No pretreatment had been realized prior to the treatment with proterguride.
The patient was treated with a daily dose of 0.5 mg of proterguride which was administered in the morning and in the evening. The treatment was realized gradually.
The treatment was realized over a period of 33 weeks and the condition of the patient was examined weekly. After just 12 weeks, the condition had improved, particularly regarding the pains in the chest.

Series [5] concerns patient with migrainous headaches. The experiment in a line: Migraine prophylaxis case. Type of series: in vivo, human. The procedure: The patient suffered from migrainous headaches with an average of 4-5 attacks per month, lasting on average between 3 and 8 hours. For acute pain treatment during an attack, a dosage of 50 mg of sumatriptan was administered orally. For the purpose of migraine prophylaxis, the patient was treated with topiramate in a dosage of 200 mg per day. […] Under administration of terguride (2×0.25 mg per day), the number of pain attacks decreased considerably to only one pain attack within 6 weeks with low pain intensity; also, the well-being of the patient improved within 2 weeks after the start of the therapy.

Series [6] relates to patient suffering from fibromyalgia. Description: Application of terguride in the case of fibromyalgia (single patient). Type of series: in vivo, human. As for the experimental part:
A patient suffering from fibromyalgia was treated with terguride. The patient complained about chronic pain in the extremities as well as about stomach pains and continuous exhaustion and tiredness. The discomforts had persisted for several months. No pretreatment had been realized prior to the treatment with terguride. The patient was treated with a daily dose of 3 mg of terguride which was administered in the morning and in the evening in single doses of 1.5 mg. The treatment was realized gradually. […] The treatment was realized over a period of 25 weeks and the condition of the patient was examined weekly.

The subject of series [7] is patient suffering from mastalgia and stomach pains due to premenstrual syndrome. The experiment in a line: Application of terguride in the case of mastalgia/premenstrual syndrome (single patient). Type of series: in vivo, human. The procedure:
A patient suffering from mastalgia and stomach pains due to premenstrual syndrome was treated with terguride. […] The therapy started in the middle of the cycle. Twice a day, a tablet containing 0.5 mg terguride was administered to the patient over a period of 3 months. The pain severity was observed by means of a visual analogue scale. During the therapy, the pains in the chest and stomach area decreased and the patient was able to renounce on the administration of additional pain medication.

The test system of series [8] is tumor patient with bone pains from bone metastases. Description: Tumor associated pain case. Type of series: in vivo, human. The following applies: 0.5 mg bid. As for the experimental part:
A tumor patient suffering from a pancreatic carcinoma complained about bone pains resulting from the development of bone metastases. The patient was treated with ibandronate. Additionally, the treatment was realized with ibuprofen, acetaminophen and desipramine. […] After the start of the therapy with terguride (0.5 mg bid) the patient's pain conditions were reduced and the well-being improved continuously.

The test system of series [9] is patient suffering from migraine. Description: Application of terguride for the prophylaxis of migraine (single patient, diary). Type of series: in vivo, human. As to conditions: daily dose 2 mg. The procedure: A patient, suffering from migraine on average four times a month, was treated with terguride. The patient was treated with a daily dose of 2 mg terguride which was administered in the morning and in the evening in single doses of 1 mg. The treatment was realized gradually. […] The patient was treated over a period of 24 weeks. The frequency, duration and severity of the migraine attacks were recorded by means of a diary. Within 4 weeks following the start of the treatment, a reduction of 40% of the frequency of migraine attacks could be shown, as well as a reduction of the attack duration from cumulative 12 days before the therapy to 8 days under terguride. The consumption of pain medication under therapy with terguride was reduced by 46%. […] The patient reported an improvement of […] general condition.

The structures appear in SMILES notation.

On to `CN(C)CCC=C1c2ccccc2CCc2ccccc21` [amitriptyline, reference compound], for which the “pains under prior treatment” value in series [1] is “only to a short-term improvement”. Besides, the “mean pain values on numerical rating scale (0=no pain to 10=maximum pain intensity)” value in [2] (at examination, patient treated with 3x50 mg/day, before terguride) is 8-9.

For the compound `NCC1(CC(=O)O)CCCCC1` [gabapentin, reference compound], the “pains under prior treatment” value in series [1] was “only to a short-term improvement”.

Regarding `COc1ccc2c3c1O[C@H]1C(=O)CC[C@@]4(O)[C@@H](C2)N(C)CC[C@]314` [oxycodone, reference compound], the pain intensity entry in series [3] (oxycodone alone, 2x10 mg increased to 2x40 mg per day) is given as “considerably reduced”. Moreover, the constipation complaints entry in [3] (oxycodone alone, longer treatment, required dose reduction to 2x20 mg/day) is “the more complaints occurred due to constipation”.

Turning to `CCCN1C[C@@H](NC(=O)N(CC)CC)C[C@@H]2c3cccc4[nH]cc(c34)C[C@H]21` [proterguride], in [4] (after 12 weeks), the “condition, particularly pains in the chest” value is listed as “improved” and the swelling of breasts result was “reduction of the swelling”. The “chronic tiredness and exhaustion and stomach pains” value in [4] (after 20 weeks) is reported as “largely disappeared”. Further, in series [4] (after 30 weeks), the “overall condition of the patient” value is given as “in the same condition as before the onset of the disease”.

Turning to `CCN(CC)C(=O)N[C@H]1C[C@@H]2c3cccc4[nH]cc(c34)C[C@H]2N(C)C1` [terguride], the “efficacy under chronic therapy” value in series [3] (chronic therapy) was “remained efficient”. Further, in series [3] (co-therapy terguride 2x0.5 mg/day with oxycodone 2x20 mg/day), the pain result is on record as “almost completely pain-free”. The side effects entry in series [5] (terguride 2x0.25 mg per day) is recorded as “No side effects were observed”; in series [7] (0.5 mg twice a day, 3 months), “No side effects were observed”; in series [1] (0.5 mg t.i.d.), “No side effects were observed”; in [8], “No side effects were observed”; in series [9] (24 weeks), “No side effects”; in series [2] (0.5 mg b.i.d.), “No side effects”. Moreover, the “time to improvement of well-being after start of therapy” value in [5] (terguride 2x0.25 mg per day) is recorded as at most 2 weeks. Besides, the “number of pain attacks within 6 weeks” value in series [5] (terguride 2x0.25 mg per day, before: 4-5 attacks per month, low pain intensity) is recorded as “one”. Further, the “migraine presentation after discontinuation (treatment-free interval)” value in [5] (terguride discontinued) was “the migraine presentation returned”. The “condition, in particular pains in the extremities and stomach pains (visual analog scale)” value in [6] (daily dose 3 mg (2 x 1.5 mg), after 10 weeks) is reported as “visibly improved”. Also, in series [6] (daily dose 3 mg, after 17 weeks), the “chronic conditions of tiredness and exhaustion” value was “nearly impossible to detect”. For the same compound, in [7] (0.5 mg twice a day, 3 months), the “general condition and joy of life” value is on record as “considerably improved”. Besides, the “pains in the chest and stomach area (visual analogue scale)” value in series [7] (0.5 mg twice a day, 3 months) is recorded as “decreased”. Also, the “symptoms during the following months under therapy” value in series [7] (continued therapy) is “remained symptom-free”. The “pain on gradual dose reduction (treatment-free interval)” value in series [1] (after 3 months, daily dose gradually reduced) is on record as “the pain increased quickly”. Moreover, the pain presentation result in [1] (terguride 0.5 mg t.i.d.) was “improved in a fast and continuous manner”. Moreover, in series [8], the pain conditions result is reported as “reduced”. Also, in series [9] (under terguride, versus 12 days before the therapy), the “attack duration (cumulative)” value came out at 8 days. In series [9] (under therapy), the “reduction of consumption of pain medication” value is recorded as 46%. For the same compound, the “reduction of the frequency of migraine attacks” value in [9] (within 4 weeks following start of treatment) is given as 40%. Moreover, in series [2] (0.5 mg b.i.d., continuous treatment), the “loss of efficacy under continuous treatment” value is on record as “No signs of an loss of efficacy”. Further, the “average pain value on numerical rating scale (0=no pain to 10=maximum pain intensity)” value in series [2] (under terguride 0.5 mg b.i.d.) is recorded as 2-3.

In the case of `CC1(C)O[C@@H]2[C@@H](CO[C@@]3(COS(N)(=O)=O)OC(C)(C)O[C@@H]23)O1` [topiramate, reference compound], the migraine activity result in [5] (topiramate 200 mg per day) is given as “No reduction of the migraine activity”. Besides, the “adverse effects leading to discontinuation” value in [5] (topiramate 200 mg per day, after 3 months) is “nausea and weight loss”.
